Measurements reported in patent US5075288A, “Somnogenic fragment of interleukin-1β” (The University of Tennessee Research Corporation, priority 1990, dated 1991).
“Also recorded” adds a separate entry of the source. Residues, ends and D or L forms follow the SMILES beside them.

What was measured:
[1] = test system: male, New Zealand white pasteurella-free rabbits; assay: Rabbit sleep (EEG) and body temperature after ICV injection; format: in vivo; settings: for Colonic Temperature Start: at the time of injection; for Colonic Temperature End: end of 6-h recording session; for NREMS / REMS: six-hour recording period
From the text: A lateral cerebral ventricular guide cannula, a thermistor, and stainless steel screw electroencephalographic (EEG) electrodes were surgically implanted into male, New Zealand white pasteurella-free rabbits (about 3.5 kg). EEG electrodes were placed over the frontal and parietal cortices A 50,000 ohm calibrated thermistor (Model 4018, Omega Engineering, Stamford, Conn.) was implanted over the parietal cortex to measure brain temperature (Tbr). Insulated leads from the screws and the thermistor were routed to an amphenol plug attached to the skull with dental acrylic (DUZ-ALL, Coralite Dental Products, Skokie, Ill.). The guide cannula was placed in the left lateral cerebral ventricle. A minimum of two weeks was allowed for recovery before the animals were habituated to the recording chambers (Hotpack 352600, Philadelphia, Pa.). Food and water were available ad libitum. Each recording chamber contained an electronic swivel (Stoelting, Chicago, Ill.) suspended by a shock-absorbing system. A flexible tether connected the swivel to the Amphenol connector on the rabbit's head, thus allowing freedom of movement. An accelerometer (Grass, SPAI, Quincy, Mass.) attached to the shock-absorbing system provided an indication of body movement. The cables from the swivel and the accelerometer were connected to Grass 7D polygraphs in an adjacent room. The polygraphs recorded EEG, Tbr, and body movement for each animal. The EEG for each rabbit was passed through band-pass filters with the 0.5-3.5 Hz (delta), 4.0-7.5 Hz (theta), 8.0-12.5 Hz (alpha), and 13.0-15.0 Hz (beta) frequency bands rectified and averaged for 1-min intervals by a Buxco model 24/32 data logger (Buxco Electronics, Sharon, Conn.). These values for 1-min periods were used to compute hourly averages. EEG amplitudes in the delta frequency band during 1-min epochs of NREMS for each of the six postinjection hours were also determined. The 10 samples of greatest magnitude in each hour were averaged for each rabbit during control and test NREM sleep periods. […] Tbr S were also recorded using a data logger (Acrosystems 400, Beverly, Mass.), with values for each rabbit sampled at 10-min intervals. NREM sleep and REM sleep were measured as a percent of time over a six-hour recording period. Colonic temperatures (Tco) were taken with a flexible thermistor (YSI, Inc., Yellow Springs, Ohio) at the time of injection and at the end of 6-h recording session. IL1 fragments were dissolved in appropriate volumes of artificial cerebrospinal fluid (aCSF) (2 mM KC1, 1.15 mM CaCl2, and 0.96 mM MgCl2 in pyrogen free saline, […] NaCl [Abbott, N. Chicago, Ill.] Hu-rIL1β was supplied in phosphate-buffered saline (PBS) (0.4 mg/ml). All substances were injected into a lateral cerebral ventricle (ICV). Injection volumes were 12-25 μl per rabbit; each injection lasted about 2 min. Animals were injected between 0900 and 1000 h. Control recordings were obtained from each animal after injection of vehicle (aCSF). After injections, animals were recorded from the next 6 h. Data from all experiments were analyzed with the SPSS^x Information System. Friedman's test for k-related samples was used to test for differences across the 6-h recording periods. If significant differences were indicated, the Wilcoxon matched-pairs signed-ranks test was used to identify the specific hours in which the differences occurred. An alpha level of P<0.05 was accepted as indicating significance.

Murine D10 Cells = assay: T cell proliferation assay, [3H] thymidine incorporation in murine T cell line D10; format: cell-based, mouse
Procedure: Thymus glands were removed from 6-10 week old CD1 mice after mice had been sacrificed by cervical dislocation. Thymocytes were isolated by gently homogenizing the thymus glands in a dounce homogenizer. Thymocytes were suspended in RPMI 1640 containing 7.5% FCS and 5×10-^6 M 2-mercaptoethanol. Aliquots of the cell suspension (100 μl) were dispensed into wells of flat bottom microtiter plates (Linbro Plastics), and samples (50 μl) suspended in RPMI 1640 were added to appropriate wells. Plates were incubated at 37° C., 5% CO2, in a humidified atmosphere for 60 h, and wells were pulsed with [^3 H] thymidine (1 μCi, […]) for 12h. After the 12-h pulse, cells were harvested onto paper filter pads with a multiple-sample harvester, and thymocyte proliferation was determined by scintillation counting. In some experiments, the murine T cell line D10 was used instead of thymocytes as target cells using phytohemmagglutinin (1 μg/ml) as costimulant.

CC[C@H](C)[C@H](NC(=O)[C@H](CCC(=O)O)NC(=O)[C@@H](NC(=O)[C@H](CCCCN)NC(=O)[C@H](CC(N)=O)NC(=O)[C@H](Cc1ccccc1)NC(=O)[C@@H](NC(=O)[C@H](Cc1ccccc1)NC(=O)[C@H](CCCNC(=N)N)NC(=O)[C@H](CCCCN)NC(=O)[C@H](CCC(=O)O)NC(=O)[C@H](CCSC)NC(=O)[C@H](CCCCN)NC(=O)[C@H](CCCCN)NC(=O)[C@@H](N)CCCCN)C(C)C)[C@@H](C)CC)C(=O)N[C@@H](CC(N)=O)C(=O)N[C@@H](CC(N)=O)C(=O)N[C@@H](CCCCN)C(=O)N[C@@H](CC(C)C)C(=O)N[C@@H](CCC(=O)O)C(=O)N[C@@H](Cc1ccccc1)C(=O)N[C@@H](CCC(=O)O)C(=O)N[C@@H](CO)C(=O)N[C@@H](C)C(=O)N[C@@H](CCC(N)=O)C(=O)N[C@@H](Cc1ccccc1)C(=O)N1CCC[C@H]1C(=O)N[C@@H](CC(N)=O)C(=O)N[C@@H](Cc1c[nH]c2ccccc12)C(=O)N[C@@H](Cc1ccc(O)cc1)C(=O)N[C@H](C(=O)N[C@@H](CO)C(=O)N[C@H](C(=O)O)[C@@H](C)O)[C@@H](C)CC [Peptide 208-240] (H-KKKMEKRFVFNKIEINNKLEFESAQFPNWYIST-OH)
abnormal behavior after injection ([1]; 25 μg ICV): no appearance of abnormal behavior; also recorded: did not appear to induce abnormal behavior

199-228: synthetic fragment of IL1β, amino acids 199-228 (ESVDPKNYPKKKMEKRFVFNKIEINNKLEF; UniProt P01584 199-228, looked up, fragment) [Peptide 199-228]
T cell proliferation (in words) (Murine D10 Cells; murine D10 cells (Table 2)): stimulated T cell proliferation | [3H] Thymidine Incorporation, Murine D10 Cells (Murine D10 Cells; standard deviation in, phytohemmagglutinin 1 μg/ml as costimulant): 2799 (652) counts per minute | Colonic Temperature Start ([1]; 25 μg ICV): 39.3 (0.1) °C | Colonic Temperature End ([1]; 25 μg ICV): 39.4 (0.1) °C | NREMS ([1]; 25 μg ICV): 50.9 (3.9) percent of time | REMS ([1]; 25 μg ICV): 20.0 (1.2) percent of time | somnogenic and pyrogenic activity: effect on sleep or Tbr (in words) ([1]; ICV, doses of Table 3): failed to alter sleep or Tbr

IL1β: Recombinant human IL1β prepared by Cistron Biotechnology, Incorporated
Colonic Temperature Start ([1]; 5 ng ICV): 39.2 (0.0) °C | Colonic Temperature End ([1]; 5 ng ICV): 40.0 (0.1) °C | NREMS ([1]; 5 ng ICV): 53.3 (3.2) percent of time | REMS ([1]; 5 ng ICV): 4.4 (0.8) percent of time | Colonic Temperature Start ([1]; 20 ng ICV): 39.3 (0.1) °C | Colonic Temperature End ([1]; 20 ng ICV): 41.0 (0.3) °C | NREMS ([1]; 20 ng ICV): 61.5 (4.3) percent of time | REMS ([1]; 20 ng ICV): 2.1 (0.6) percent of time
